Experimental data published in patent US8501732B2, “Aminomethyl quinolone compounds” (Hoffmann-La Roche Inc., priority 2011, dated 2013).

Columns and labels:
[1] = target: JNK1 (Homo sapiens (Human), UniProt P45983); assay: In Vitro JNK1 Assay (TR-FRET, phosphorylation of GST-c-Jun); format: biochemical; details: 0.2 nM active JNK1 kinase, 26.7 nM GST-c-Jun, 2 μM ATP, 30 min at room temperature
In short: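 IC50 derived from percent inhibition across 10 serially diluted concentrations, with TR-FRET detection of phospho-c-Jun via an anti-phospho-c-Jun antibody after EDTA stop. Substrate was GST-c-Jun 1-79, reacted 30 min at room temperature in pH 7.0 HEPES buffer with MgCl2, DTT, vanadate and BSA.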

[2] = system: phospho(Ser63)-c-jun in HK-2 cells; assay: Cell-Based Assay for JNK Inhibitors (in-cell ELISA, phospho(Ser63)-c-jun after TNFα); details: HK-2 cells (human proximal tubule cells), 60 minutes compound, then 10 ng/mL TNFα for 30 minutes
In short: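 HK-2 human proximal tubule cells were seeded at 40,000 cells/well, cultured 24 h, then serum-starved 16–24 h before TNFα stimulation with compound. Phospho(Ser63)-c-jun was quantified by in-cell ELISA on fixed, permeabilised cells, using a rabbit phospho-specific primary (overnight, 4 °C) and an HRP-linked anti-rabbit secondary. Absorbance was read at 450 nm.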

Chain of JNK1 (P45983 whole entry): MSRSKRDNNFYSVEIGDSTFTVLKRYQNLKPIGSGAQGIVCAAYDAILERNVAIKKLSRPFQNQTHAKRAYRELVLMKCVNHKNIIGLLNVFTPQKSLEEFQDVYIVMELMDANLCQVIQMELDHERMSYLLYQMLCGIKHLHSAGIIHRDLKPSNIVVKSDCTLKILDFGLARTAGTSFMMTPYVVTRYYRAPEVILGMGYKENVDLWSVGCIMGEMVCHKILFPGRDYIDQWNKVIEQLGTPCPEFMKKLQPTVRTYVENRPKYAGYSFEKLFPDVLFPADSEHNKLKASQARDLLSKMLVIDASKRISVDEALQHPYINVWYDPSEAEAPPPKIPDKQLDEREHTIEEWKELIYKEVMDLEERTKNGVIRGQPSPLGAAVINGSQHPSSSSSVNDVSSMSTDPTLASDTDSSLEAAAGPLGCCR

Row | SMILES | IC50 [1] | EC50 [2]
1 | O=C(NCc1cn(-c2ccccc2)c2cc(Cl)ccc2c1=O)c1ccc(N2CCC(CO)CC2)nc1 [Example I-67, 4-Hydroxymethyl-3,4,5,6-tetrahydro-2H-[1,2′]bipyridinyl-5′-carboxylic acid (7-chloro-4-oxo-1-phenyl-1,4-dihydro-quinolin-3-ylmethyl)-amide] | 0.02 µM | 6.3 µM
2 | O=C(NCc1cn(-c2ccccc2)c2cc(Cl)ccc2c1=O)c1ccc(N2CCCCCC2)nc1 [Example I-68, 6-Azepan-1-yl-N-(7-chloro-4-oxo-1-phenyl-1,4-dihydro-quinolin-3-ylmethyl)-nicotinamide] | 0.021 µM | 17 µM
3 | CS(=O)(=O)C1CCN(c2ccc(C(=O)NCc3cn(-c4ccccc4)c4cc(Cl)ccc4c3=O)cn2)CC1 [Example I-69, 4-Methanesulfonyl-3,4,5,6-tetrahydro-2H-[1,2′]bipyridinyl-5′-carboxylic acid (7-chloro-4-oxo-1-phenyl-1,4-dihydro-quinolin-3-ylmethyl)-amide] | 0.024 µM | 39 µM
4 | O=C(NCc1cn(-c2ccccc2)c2cc(Cl)ccc2c1=O)c1ccc(N2CC[C@@H](O)C2)nc1 [Example I-70] | 0.024 µM | 33 µM
5 | COC1CCN(c2ccc(C(=O)NCc3cn(-c4ccccc4)c4cc(Cl)ccc4c3=O)cn2)CC1 [Example I-71, 4-Methoxy-3,4,5,6-tetrahydro-2H-[1,2′]bipyridinyl-5′-carboxylic acid (7-chloro-4-oxo-1-phenyl-1,4-dihydro-quinolin-3-ylmethyl)-amide] | 0.026 µM | 17 µM
6 | CNC(=O)C1CCN(c2ccc(C(=O)NCc3cn(-c4ccccc4)c4cc(Cl)ccc4c3=O)cn2)CC1 [Example I-72, 3,4,5,6-Tetrahydro-2H-[1,2′]bipyridinyl-4,5′-dicarboxylic acid 5′-[(7-chloro-4-oxo-1-phenyl-1,4-dihydro-quinolin-3-ylmethyl)-amide]-4-methylamide] | 0.027 µM | 100 µM
7 | NC(=O)N1CCN(c2ccc(C(=O)NCc3cn(-c4ccccc4)c4cc(Cl)ccc4c3=O)cn2)CC1 [Example I-73, 4-{5-[(7-Chloro-4-oxo-1-phenyl-1,4-dihydro-quinolin-3-ylmethyl)-carbamoyl]-pyridin-2-yl}-piperazine-1-carboxylic acid amide] | 0.029 µM | 100 µM
8 | COCCNc1ccc(C(=O)NCc2cn(-c3ccccc3)c3cc(Cl)ccc3c2=O)cn1 [Example I-74, N-(7-Chloro-4-oxo-1-phenyl-1,4-dihydro-quinolin-3-ylmethyl)-6-(2-methoxy-ethylamino)-nicotinamide] | 0.03 µM | 27 µM
9 | CN(C)C1CCN(c2ccc(C(=O)NCc3cn(-c4ccccc4)c4cc(Cl)ccc4c3=O)cn2)CC1 [Example I-75, 4-Dimethylamino-3,4,5,6-tetrahydro-2H-[1,2′]bipyridinyl-5′-carboxylic acid (7-chloro-4-oxo-1-phenyl-1,4-dihydro-quinolin-3-ylmethyl)-amide] | 0.031 µM | 14 µM
10 | O=C(NCc1cn(-c2ccccc2)c2cc(Cl)ccc2c1=O)c1ccc(N2CCC(O)CC2)nc1 [Example I-76, 4-Hydroxy-3,4,5,6-tetrahydro-2H-[1,2′]bipyridinyl-5′-carboxylic acid (7-chloro-4-oxo-1-phenyl-1,4-dihydro-quinolin-3-ylmethyl)-amide] | 0.034 µM | 48 µM
11 | O=C(NCc1cn(-c2ccccc2)c2cc(Cl)ccc2c1=O)c1ccc(NCCO)nc1 [Example I-77, N-(7-Chloro-4-oxo-1-phenyl-1,4-dihydro-quinolin-3-ylmethyl)-6-(2-hydroxy-ethylamino)-nicotinamide] | 0.047 µM | 63 µM
12 | O=C(NCc1cn(-c2ccccc2)c2cc(Cl)ccc2c1=O)c1ccc(NC2CCOCC2)nc1 [Example I-78, N-(7-Chloro-4-oxo-1-phenyl-1,4-dihydro-quinolin-3-ylmethyl)-6-(tetrahydro-pyran-4-ylamino)-nicotinamide] | 0.049 µM | 22 µM
